Results as given in patent EP4353712A1 (Biodol Therapeutics, priority 2022, dated 2024).
Structures can show the parent of a compound that is named as a salt.

target: T1, FLT3 (Homo sapiens, UniProt P36888); experiment: HTRF binding assay of FL to FLT3 (TR-FRET, SNAP-FLT3 transfected HEK293T cells); settings: HEK293T cells transfected with SNAP-FLT3, labelled with SNAP-Lumi4-Tb; compounds 1 h at room temperature, then FL-d2 (0.5 nM), read after 20 h; 12 dilutions in triplicates, performed twice; read-out: Inhibition of FLT3 binding IC50, binding
T1 construct: expressed in transfected cells; host or cells: HEK293T
T1 sequence (P36888 27-993): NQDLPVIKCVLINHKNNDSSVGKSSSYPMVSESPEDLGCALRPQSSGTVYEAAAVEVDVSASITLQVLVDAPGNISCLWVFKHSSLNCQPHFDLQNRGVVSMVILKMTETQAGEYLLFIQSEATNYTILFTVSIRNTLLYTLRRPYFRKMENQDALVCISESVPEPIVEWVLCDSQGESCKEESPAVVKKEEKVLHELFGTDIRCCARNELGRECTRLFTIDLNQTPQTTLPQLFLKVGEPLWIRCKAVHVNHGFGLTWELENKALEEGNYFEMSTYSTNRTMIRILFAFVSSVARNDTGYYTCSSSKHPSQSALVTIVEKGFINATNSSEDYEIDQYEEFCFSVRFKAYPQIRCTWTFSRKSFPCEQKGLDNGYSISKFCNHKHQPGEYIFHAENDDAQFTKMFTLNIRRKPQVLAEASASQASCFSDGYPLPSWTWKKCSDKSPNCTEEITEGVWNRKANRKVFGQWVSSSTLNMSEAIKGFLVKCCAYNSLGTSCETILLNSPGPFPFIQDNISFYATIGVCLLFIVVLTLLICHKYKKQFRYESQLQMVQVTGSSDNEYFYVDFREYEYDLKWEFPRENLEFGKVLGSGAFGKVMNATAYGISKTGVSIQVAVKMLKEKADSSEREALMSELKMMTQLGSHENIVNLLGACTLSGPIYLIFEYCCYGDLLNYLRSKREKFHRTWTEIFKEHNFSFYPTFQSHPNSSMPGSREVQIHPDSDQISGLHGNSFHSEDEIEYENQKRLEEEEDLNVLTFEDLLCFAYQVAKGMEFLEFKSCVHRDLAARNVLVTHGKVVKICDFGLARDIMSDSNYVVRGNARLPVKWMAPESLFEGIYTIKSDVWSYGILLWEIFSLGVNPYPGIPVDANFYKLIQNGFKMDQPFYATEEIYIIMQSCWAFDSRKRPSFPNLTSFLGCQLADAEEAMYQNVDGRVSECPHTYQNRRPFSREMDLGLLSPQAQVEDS
Procedure: The binding of FL to FLT3 was measured by a Homologous Time-Resolved Fluorescence (HTRF) assay (Degorce et al., Current Chemical Genomics, 2009, 3, 22-32), which involves resonance energy transfer between a donor, Lumi4-Tb-donor-derivatized benzylguanine substrate (SNAP-Lumi4-Tb, excitation: 337 nm, emission: 630 nm, Cisbio, France), transfected in HEK cells, and an acceptor, red fluorescent FL (FL-d2, excitation: 620 nm, emission: 660 nm, Cisbio, France). When FL-d2 binds to the SNAP-Lumi4-Tb-tagged FLT3 receptor, the proximity of both fluorophores allows the time-resolved Förster resonance energy transfer (TR-FRET) signal to occur and the binding is measured as the ratio between the fluorescent emissions at 660 to 620 nm.
The detailed method is described in Rivat et al. (Nature Communications, 2018, 9 :1042). Briefly, HEK293T cells were transfected with a pCDNA3.1 SNAP-FLT3 plasmid by using Lipofectamine (Invitrogen), and were than labelled with SNAP-Lumi4-Tb. Plates containing attached transfected HEK293T cells were incubated with compounds of formula (I) for 1 h at room temperature. A series of 12 dilutions in triplicates was used for each compound and the experiment was performed twice. Then FL-d2 (0.5 nM) was added and the TR-FRET signal was read after 20 h incubation at room temperature with a HTRF-compatible reader (Envision, Perkin Elmer) allowing a donor excitation at 337 nm and a signal collection both at 615 nm and 665 nm (20 flashes, delay 50 µs, integration time 400 µs). Then HTRF ratio, obtained by dividing the acceptor signal (665 nm) by the donor signal (615 nm), was calculated at each concentration of test compounds. Non-specific binding was measured in the presence 50 µM of BDT001 (Rivat et al., ibid.). Concentration giving 50 % inhibition (IC50) were calculated by non-linear regression analysis for a one-site model, with variable slope (Prism®, Graphpad software, USA).

With CN1CCC(c2ccc(C(=O)Nc3cccc4cccnc34)cc2)CC1 [(9), 4-(1-methylpiperidin-4-yl)-N-(quinolin-8-yl)benzamide] as the molecule, how does the IC50 read?
Its IC50 is 1500 nM.

For CN1CCC(c2ccc(C(=O)Nc3cccc4nccnc34)cc2)CC1 [(28), 4-(1-methylpiperidin-4-yl)-N-(quinoxalin-5-yl)benzamide], which IC50 is on record?
The IC50 was 400 nM.

Which IC50 does the source give for CN1CCC(c2ccc(C(=O)Nc3cccc4cccnc34)c(C(F)(F)F)c2)CC1 [(18), 4-(1-methylpiperidin-4-yl)-N-(quinolin-8-yl)-2-(trifluoromethyl)benzamide] here?
The IC50 was 1700 nM.

How did the IC50 turn out when CN1CCN(c2ccc(C(=O)Nc3ccc(F)c4nccnc34)cc2)CC1 [(37), N-(8-fluoroquinoxalin-5-yl)-4-(4-methylpiperazin-1-yl)benzamide] was run?
The IC50 was 700 nM.

With COc1ccc(NC(=O)c2ccc(OCCN(C)C)cc2)c2ccncc12 [(34)] as the molecule, how does the IC50 read?
Its IC50 is 500 nM.

For CN(C)CCOc1ccc(C(=O)Nc2ccc(F)c3ccncc23)cc1 [(22), 4-(2-(dimethylamino)ethoxy)-N-(5-fluoroisoquinolin-8-yl)benzamide], which IC50 is on record?
The IC50 was 1900 nM.

With CN1CCN(c2ccc(C(=O)Nc3ccc(Cl)c4cnccc34)cc2)CC1 [(51), N-(8-chloroisoquinolin-5-yl)-4-(4-methylpiperazin-1-yl)benzamide hydrochloride] as the molecule, how does the IC50 read?
Its IC50 is 1300 nM.

CN(C)CCOc1ccc(C(=O)Nc2cccc3cnncc23)cc1 [(19), 4-[2-(dimethylamino)ethoxy]-N-(phthalazin-5-yl)benzamide] was tested. Which IC50 did it give?
The IC50 was 25000 nM.

Which IC50 does the source give for CN1CCN(c2ccc(C(=O)Nc3cccc4cnccc34)cc2)CC1 [(39), N-(isoquinolin-5-yl)-4-(4-methylpiperazin-1-yl)benzamide] here?
Its IC50 is 800 nM.

For CN(C)CCOc1ccc(C(=O)Nc2cccc3cnccc23)cc1C(F)(F)F [(48), 4-(2-(dimethylamino)ethoxy)-N-(isoquinolin-5-yl)-3-(trifluoromethyl)benzamide], which IC50 is on record?
Its IC50 is 1300 nM.

How did the IC50 turn out when CN1CCC(c2ccc(C(=O)Nc3cccc4cccnc34)c(F)c2)CC1 [(12), 2-fluoro-4-(1-methylpiperidin-4-yl)-N-(quinolin-8-yl)benzamide] was run?
The IC50 was 1800 nM.

COc1cc(C(=O)Nc2cccc3cnccc23)ccc1C1CCN(C)CC1 [(17), N-(isoquinolin-5-yl)-3-methoxy-4-(1-methylpiperidin-4-yl)benzamide] was tested. Which IC50 did it give?
Its IC50 is 900 nM.

How did the IC50 turn out when CN(C)CCOc1ccc(C(=O)Nc2cccc3nccnc23)cc1 [(31), 4-[2-(dimethylamino)ethoxy]-N-(quinoxalin-5-yl)benzamide] was run?
Its IC50 is 700 nM.

For CN1CCC(c2ccc(C(=O)Nc3ccc(F)c4nccnc34)cc2)CC1 [(5), N-(8-fluoroquinoxalin-5-yl)-4-(1-methylpiperidin-4-yl)benzamide], which IC50 is on record?
The IC50 was 400 nM.

Cc1cc(N2CCN(C)CC2)ccc1C(=O)Nc1cccc2cnccc12 [(45), N-(isoquinolin-5-yl)-2-methyl-4-(4-methylpiperazin-1-yl)benzamide] was tested. Which IC50 did it give?
The IC50 was 1000 nM.

CN(C)CCOc1ccc(C(=O)Nc2ccc(F)c3nccnc23)cc1 [(23), 4-(2-(dimethylamino)ethoxy)-N-(8-fluoroquinoxalin-5-yl)benzamide] was tested. Which IC50 did it give?
The IC50 was 500 nM.

How did the IC50 turn out when CN1CCC(c2ccc(C(=O)Nc3cccc4ncccc34)cc2C(F)(F)F)CC1 [(27), 4-(1-methylpiperidin-4-yl)-N-(quinolin-5-yl)-3-(trifluoromethyl)benzamide] was run?
The IC50 was 3600 nM.

How did the IC50 turn out when CN1CCN(c2ccc(C(=O)Nc3cccc4ncccc34)cc2)CC1 [(40), 4-(4-methylpiperazin-1-yl)-N-(quinolin-5-yl)benzamide] was run?
Its IC50 is 1700 nM.

With CN1CCC(c2ccc(C(=O)Nc3cccc4cnccc34)cc2)CC1 [(7), N-(isoquinolin-5-yl)-4-(l-methylpiperidin-4-yl)benzamide] as the molecule, how does the IC50 read?
The IC50 was 800 nM.

For Cc1cc(C(=O)Nc2cccc3ncccc23)ccc1N1CCN(C)CC1 [(29), 3-methyl-4-(4-methylpiperazin-1-yl)-N-(quinolin-5-yl)benzamide], which IC50 is on record?
The IC50 was 1200 nM.

Which IC50 does the source give for CN1CCN(c2ccc(C(=O)Nc3cccc4cnccc34)cc2F)CC1 [(24), 3-fluoro-N-(isoquinolin-5-yl)-4-(4-methylpiperazin-1-yl)benzamide] here?
The IC50 was 1100 nM.

How did the IC50 turn out when CN1CCC(c2ccc(C(=O)Nc3cccc4ccncc34)cc2)CC1 [(8), N-(isoquinolin-8-yl)-4-(1-methylpiperidin-4-yl)benzamide] was run?
Its IC50 is 800 nM.

How did the IC50 turn out when CN(C)CCOc1ccc(C(=O)Nc2cccc3cccnc23)cc1 [(11), 4-[2-(dimethylamino)ethoxy]-N-(quinolin-8-yl)benzamide] was run?
The IC50 was 2900 nM.

CN1CCC(c2ccc(C(=O)Nc3ccc(Cl)c4ncccc34)cc2)CC1 [(30), N-(8-chloroquinolin-5-yl)-4-(1-methylpiperidin-4-yl)benzamide] was tested. Which IC50 did it give?
Its IC50 is 1900 nM.

How did the IC50 turn out when CN(C)CCOc1ccc(C(=O)Nc2cccc3ncccc23)c(C(F)(F)F)c1 [(49), 4-(2-(dimethylamino)ethoxy)-N-(quinolin-5-yl)-2-(trifluoromethyl)benzamide] was run?
The IC50 was 2400 nM.

CN1CCN(c2ccc(C(=O)Nc3ccc(F)c4cccnc34)cc2)CC1 [(42), N-(5-fluoroquinolin-8-yl)-4-(4-methylpiperazin-1-yl)benzamide] was tested. Which IC50 did it give?
Its IC50 is 3100 nM.

With CN1CCN(c2ccc(C(=O)Nc3cccc4cccnc34)cc2)CC1 [(35), 4-(4-methylpiperazin-1-yl)-N-(quinolin-8-yl)benzamide] as the molecule, how does the IC50 read?
Its IC50 is 1700 nM.

CN(C)CCOc1ccc(C(=O)Nc2ccc(F)c3cccnc23)cc1 [(26), 4-[2-(dimethylamino)ethoxy]-N-(5-fluoroquinolin-8-yl)benzamide] was tested. Which IC50 did it give?
Its IC50 is 1400 nM.

With CN1CCC(c2ccc(C(=O)Nc3cccc4cnccc34)cc2C#N)CC1 [(21), 3-cyano-N-(isoquinolin-5-yl)-4-(1-methylpiperidin-4-yl)benzamide] as the molecule, how does the IC50 read?
The IC50 was 2000 nM.

Which IC50 does the source give for CN1CCC(c2ccc(C(=O)Nc3ccc(F)c4ncccc34)cc2)CC1 [(4), N-(8-fluoroquinolin-5-yl)-4-(1-methylpiperidin-4-yl)benzamide] here?
The IC50 was 5300 nM.

For CN1CCC(c2ccc(C(=O)Nc3ccc(F)c4ccncc34)cc2)CC1 [(3), N-(5-fluoroisoquinolin-8-yl)-4-(1-methylpiperidin-4-yl)benzamide], which IC50 is on record?
The IC50 was 1800 nM.

How did the IC50 turn out when CN1CCC(c2ccc(C(=O)Nc3ccc(F)c4cccnc34)cc2)CC1 [(1), N-(5-fluoroquinolin-8-yl)-4-(1-methylpiperidin-4-yl)benzamide] was run?
Its IC50 is 1200 nM.

CN1CCC(c2ccc(C(=O)Nc3cccc4cnccc34)cc2F)CC1 [(13), 3-fluoro-N-(isoquinolin-5-yl)-4-(1-methylpiperidin-4-yl)benzamide] was tested. Which IC50 did it give?
Its IC50 is 1400 nM.

CN(C)CCOc1ccc(C(=O)Nc2cccc3ncccc23)cc1 [(15), 4-(2-(dimethylamino)ethoxy)-N-(quinolin-5-yl)benzamide] was tested. Which IC50 did it give?
Its IC50 is 1700 nM.

CN(C)CCOc1ccc(C(=O)Nc2cccc3ccncc23)cc1C#N [(36), 3-cyano-4-(2-(dimethylamino)ethoxy)-N-(isoquinolin-8-yl)benzamide] was tested. Which IC50 did it give?
The IC50 was 2500 nM.

Which IC50 does the source give for CN1CCN(c2ccc(C(=O)Nc3ccc(Cl)c4ncccc34)cc2)CC1 [(46), N-(8-chloroquinolin-5-yl)-4-(4-methylpiperazin-1-yl)benzamide] here?
Its IC50 is 1000 nM.

COc1cc(C(=O)Nc2cccc3ncccc23)ccc1N1CCN(C)CC1 [(50), 3-methoxy-4-(4-methylpiperazin-1-yl)-N-(quinolin-5-yl)benzamide] was tested. Which IC50 did it give?
The IC50 was 2300 nM.
